The results in this text go back to patent US10428024B2, “Piperidinyl derivatives” (MERCK PATENT GMBH, priority 2016, dated 2019).

The target of one assay is human PDHK2 (12-407) (Homo sapiens (Human), UniProt Q15119). Put plainly: Isothermal titration calorimetry (ITC). The settings on record: 30° C., pH 7.5; read-out: Binding (ITC) KD. The protocol:
Isothermal Titration Calorimetry
ITC measurements were performed with a VP-ITC micro calorimeter (Microcal, LLC/GE Healthcare Bio-Sciences AB, Uppsala, Sweden). In general titrations were performed by titrating the protein (50 μM) to the test compound (5 μM) in 12 μl injections. All binding experiments were carried out at 30° C. In general the test compounds were diluted form DMSO stock solutions into the measurement buffer with a maximum final concentration of 1% DMSO. The measurement buffer was 20 mM HEPES, 135 mM KCl, 1 mM TCEP, 2 mM MgCl2, 15 mM NaH2PO4, pH 7.5. The human PDHK2 (12-407) was produced in E. coli as his-tagged protein and purified by affinity chromatography. The tag was removed by side specific proteolysis. Before titration the protein buffer was changed to the measurement buffer containing the same DMSO concentration as the test compound dilution. ITC data analysis was performed using Origin 7 calorimetry software from the same supplier. For most measurements a binding model of one binding site was assumed. According to the applied mathematical model it is possible to calculate the binding constant (KA), the observed binding enthalpy (ΔH^obs) as well as the stoichiometry (N) of the formed complex. Preceding analysis the raw data was corrected for the heats of dilution by extrapolating from the saturation value from the end of titration. In order to allow for direct comparison between the respective experimental series and protein preparations the protein concentration was corrected by referencing titrations to a well behaved standard inhibitor. The apparent stoichiometry values defined the fraction of binding competent protein and compensated for relative errors in protein concentration measurements. This corrected protein concentration was used to set up ITC experiment series with test compounds. Any deviations from ideal 1:1 stoichiometry observed here were attributed to errors in compound concentration. This nominal compound concentration was corrected as well to achieve 1:1 stoichiometry in the fit.

The next assay deals with PDHK2 (Homo sapiens (Human), UniProt Q15119). In words: Biochemical activity testing of PDHK2: PDC inactivation assay. The settings on record: human rec PDHK2, 5 μM ATP, read-out: IC50 PDHK2 (enzyme assay). An excerpt:
Biochemical Activity Testing of PDHK2: PDC Inactivation Assay
The biochemical activity assay for PDHK2 is based on the inactivation of PDC through phosphorylation by PDHK2. The assay is run in two steps: the enzymatic PDHK2 reaction in which isolated PDC is phosphorylated by PDHK2 with ATP as co-substrate and the PDC activity assay in which pyruvate and NAD are converted to acetyl-CoA and NADH. The PDC activity correlates to the increase in NADH and thereby is detectable directly via the increasing fluorescence signal (Exc 340 nm, Em 450 nm). Inhibition of PDHK2 results in a lower phosphorylation status and thereby a less decrease in activity of PDC and a stronger increase in NADH fluorescence signal.
The PDC inactivation assay is performed in Greiner 384-well microtiter plates and is used for high throughput screen. 4 μl of PDHK2 (human, rec, Carna Bioscience, 10 ng/μl-137 nM final concentration) and PDC (isolated from porcine heart, Sigma-Aldrich, 20 mU/ml final concentration) are incubated in the absence or presence of the test compound (10 dilution concentrations) for 30 min at room temperature in kinase buffer (15 mM potassium phosphate buffer, pH 7.0, 60 mM KCl, 1.5 mM DTT, 2.5 mM MgCl2, 0.0125% (w/v) BSA, 0.125% Pluronic F-68). The kinase reaction is started by the addition of 4 μl ATP substrate solution (fc 5 μM in kinase buffer). After 30 min incubation at 37° C. 40 μl of PDC reaction solution (100 mM Tris/HCl, pH 7.8, 0.5 mM EDTA, 1 mM MgCl2, 50 mM NaF, 0.25 mM Coenzyme A, 5 mM pyruvate, 1 mM NAD, 5 mM DTT, 1 mM thiamine pyrophosphate) is added. The first fluorescence measurement is performed on a Perkin Elmer Envision (Exc 340 nm, Em 450 nm). The reaction is incubated for 45 min at room temperature. Afterwards a second fluorescence measurement is performed and the PDC activity is calculated by the difference between both measurements. As full value for the PDHK2 assay the inhibitor-free PDHK2 reaction is used. The pharmacological zero value used is DCA (Sigma-Aldrich) in a final concentration of 3 mM. The inhibitory values (IC50) were determined using either the program Symyx Assay Explorer® or Condosseo® from GeneData.

The test system of assay [1] is PDH-E1alpha (pSer300) in HEK293T cells. Put plainly: Cellular immunofluorescence assay (Anti-PDH-E1alpha (pSer300)) in HEK293T cells. The settings on record: Homo sapiens, HEK-293T, 5 hours incubation, read-out: IC50 (cell data). The class given is cell-based. The protocol:
Cellular Assay for Determination of Compound Activities
Compound activities were determined in a cellular immunofluorescence assay.
Human HEK293T cells were seeded into black 384-well plates with clear bottom and grown overnight.
Next day, test compounds were added to the wells and the plates incubated for 5 hours. Following this, cells were fixed with formaldehyde, permeabilised and blocked. The primary antibody, Anti-PDH-E1alpha (pSer300), AP1064 (Merck Millipore) was added and incubated overnight in the plate wells. Next, cells were washed and the secondary antibody, Alexa Fluor 488, goat anti-rabbit ab (A-11008, Invitrogen) was added together with Hoechst 33258 (H3569, Invitrogen) and incubated for 1 hour in the plate wells. Finally, cells were washed and the plates were measured on the laser scanning cytometer acumen hci (TTpLabtech).
The raw data were normalized against a pharmacological inhibitor control and dose response curves were generated by plotting the percent effect values using the software package Genedata screener (Genedata).

Molecules are shown by their SMILES.

Broadly, the Kd is the free concentration of one partner at which half of the binding sites on the other are occupied at equilibrium, for simple one-to-one binding. What is called IC50 is the concentration needed to halve the response being measured. As for `Cc1ccc(C(=O)N(C)[C@H]2CCN(C(=O)[C@@](C)(O)C(F)(F)F)C[C@H]2C)c(F)c1` [Compound A27, 2-Fluoro-N,4-dimethyl-N-[(3R,4S)-3-methyl-1-[(2R)-3,3,3-trifluoro-2-hydroxy-2-methylpropanoyl]piperidin-4-yl]benzamide], at human PDHK2 (12-407), the Kd is 13 nM. In addition, the IC50 at PDHK2 stood at 300 nM; in assay [1], 9.3 nM.

On to `C[C@@H]1CN(C(=O)[C@@](C)(O)C(F)(F)F)CC[C@@H]1N(C)C(=O)c1ccc(F)cc1` [Compound A29, 4-Fluoro-N-methyl-N-[(3R,4S)-3-methyl-1-[(2R)-3,3,3-trifluoro-2-hydroxy-2-methylpropanoyl]piperidin-4-yl]benzamide], for which, on human PDHK2 (12-407), the Kd came to 38 nM. The IC50 at PDHK2 came to 250 nM; in assay [1], 290 nM.

In the case of `C[C@@H]1CN(C(=O)[C@@](C)(O)C(F)(F)F)CC[C@@H]1N(C)C(=O)c1ccccc1` [Compound A32, N-Methyl-N-[(3R,4S)-3-methyl-1-[(2R)-3,3,3-trifluoro-2-hydroxy-2-methylpropanoyl]piperidin-4-yl]benzamide], at human PDHK2 (12-407), the Kd was 46 nM. Moreover, the IC50 at PDHK2 came out at 710 nM; in assay [1], 140 nM.

For `COc1ccc(C(=O)N(C)[C@H]2CCN(C(=O)[C@@](C)(O)C(F)(F)F)C[C@H]2C)cc1` [Compound A35, 4-Methoxy-N-methyl-N-[(3R,4S)-3-methyl-1-[(2R)-3,3,3-trifluoro-2-hydroxy-2-methylpropanoyl]piperidin-4-yl]benzamide], at human PDHK2 (12-407), the Kd was 37 nM. For the same molecule, the results for the IC50 (on PDHK2; in assay [1]) were 310 nM and 33 nM, respectively.

Take `C[C@@H]1CN(C(=O)[C@@](C)(O)C(F)(F)F)CC[C@@H]1N(C)C(=O)c1ccc(F)cc1F` [Compound A38, 2,4-Difluoro-N-methyl-N-[(3R,4S)-3-methyl-1-[(2R)-3,3,3-trifluoro-2-hydroxy-2-methylpropanoyl]piperidin-4-yl]benzamide]: the Kd on human PDHK2 (12-407) was found to be 19 nM. Further, the values for the IC50 (on PDHK2; in assay [1]) were 180 nM and 110 nM, respectively.

Regarding `C[C@@H]1CN(C(=O)[C@@](C)(O)C(F)(F)F)CC[C@@H]1N(C)C(=O)c1ncc(F)cc1F` [Compound A41, 3,5-Difluoro-N-methyl-N-[(3R,4S)-3-methyl-1-[(2R)-3,3,3-trifluoro-2-hydroxy-2-methylpropanoyl]piperidin-4-yl]pyridine-2-carboxamide], on human PDHK2 (12-407), the Kd was 66 nM. Also, the IC50 amounted to 240 nM on PDHK2 and 180 nM in assay [1].

In the case of `C[C@@H]1CN(C(=O)[C@@](C)(O)C(F)(F)F)CC[C@@H]1N(C)C(=O)c1ccc(C#N)cc1` [Compound A44, 4-Cyano-N-methyl-N-[(3R,4S)-3-methyl-1-[(2R)-3,3,3-trifluoro-2-hydroxy-2-methylpropanoyl]piperidin-4-yl]benzamide], the Kd at human PDHK2 (12-407) is 53 nM. The IC50 amounted to 300 nM at PDHK2 and 350 nM in assay [1].

With `C[C@@H]1CN(C(=O)[C@@](C)(O)C(F)(F)F)CC[C@@H]1N(C)C(=O)c1ccc(C(F)(F)F)cc1F` [Compound A47, 2-Fluoro-N-methyl-N-[(3R,4S)-3-methyl-1-[(2R)-3,3,3-trifluoro-2-hydroxy-2-methylpropanoyl]piperidin-4-yl]-4-(trifluoromethyl)benzamide], the Kd on human PDHK2 (12-407) was 35 nM. For the same molecule, the IC50 on PDHK2 was found to be 230 nM; in assay [1], 190 nM.

`C[C@@H]1CN(C(=O)[C@@](C)(O)C(F)(F)F)CC[C@@H]1N(C)C(=O)c1ccc(F)cc1Cl` [Compound A50, 2-Chloro-4-fluoro-N-methyl-N-[(3R,4S)-3-methyl-1-[(2R)-3,3,3-trifluoro-2-hydroxy-2-methylpropanoyl]piperidin-4-yl]benzamide]: on human PDHK2 (12-407), the dissociation constant Kd is 13 nM. Moreover, the IC50 on PDHK2 stood at 150 nM; in assay [1], 61 nM.

For the molecule `C[C@@H]1CN(C(=O)[C@@](C)(O)C(F)(F)F)CC[C@@H]1N(C)C(=O)c1ccc(F)cn1` [Compound A53, 5-Fluoro-N-methyl-N-[(3R,4S)-3-methyl-1-[(2R)-3,3,3-trifluoro-2-hydroxy-2-methylpropanoyl]piperidin-4-yl]pyridine-2-carboxamide], the Kd at human PDHK2 (12-407) turned out to be 51 nM. Besides, the results for the IC50 (at PDHK2; in assay [1]) were 410 nM and 340 nM, respectively.

As for `C[C@@H]1CN(C(=O)[C@@](C)(O)C(F)(F)F)CC[C@@H]1N(C)C(=O)c1cnn(C)c1` [Compound A56, N,1-Dimethyl-N-[(3R,4S)-3-methyl-1-[(2R)-3,3,3-trifluoro-2-hydroxy-2-methylpropanoyl]piperidin-4-yl]-1H-pyrazole-4-carboxamide], the Kd at human PDHK2 (12-407) was determined as 130 nM. For the same molecule, the IC50 at PDHK2 was 230 nM; in assay [1] it was 910 nM.

With `C[C@@H]1CN(C(=O)[C@@](C)(O)C(F)(F)F)CC[C@@H]1N(C)C(=O)c1ccc(Cl)cc1F` [Compound A59, 4-Chloro-2-fluoro-N-methyl-N-[(3R,4S)-3-methyl-1-[(2R)-3,3,3-trifluoro-2-hydroxy-2-methylpropanoyl]piperidin-4-yl]benzamide], the Kd on human PDHK2 (12-407) is 20 nM. The IC50 worked out at 98 nM at PDHK2 and 53 nM in assay [1].

On to `C[C@@H]1CN(C(=O)[C@@](C)(O)C(F)(F)F)CC[C@@H]1N(C)C(=O)c1ccc(C(F)(F)F)cc1` [Compound A62, N-Methyl-N-[(3R,4S)-3-methyl-1-[(2R)-3,3,3-trifluoro-2-hydroxy-2-methylpropanoyl]piperidin-4-yl]-4-(trifluoromethyl)benzamide], for which the Kd at human PDHK2 (12-407) worked out at 44 nM. Also, the 50% inhibitory concentration (IC50) (on PDHK2; in assay [1]) was 290 nM each time.

As to `CCN(C(=O)c1ccc(C)cc1F)C1CCN(C(=O)[C@@](C)(O)C(F)(F)F)CC1` [Compound A64, N-Ethyl-2-fluoro-4-methyl-N-[1-((R)-3,3,3-trifluoro-2-hydroxy-2-methyl-propionyl)-piperidin-4-yl]-benzamide], the Kd on human PDHK2 (12-407) worked out at 69 nM. The IC50 on PDHK2 was determined as 410 nM; in assay [1], 310 nM.

With `Cc1ccc(C(=O)N(C(C)C)C2CCN(C(=O)[C@@](C)(O)C(F)(F)F)CC2)c(F)c1` [Compound A65, 2-Fluoro-N-isopropyl-4-methyl-N-[1-((R)-3,3,3-trifluoro-2-hydroxy-2-methyl-propionyl)-piperidin-4-yl]-benzamide], on human PDHK2 (12-407), the Kd was determined as 140 nM. For the same molecule, the IC50 on PDHK2 stood at 1300 nM; in assay [1], 590 nM.
